{"source": "patent US9512440B2", "about": "“Modulation of receptor-like kinases for promotion of plant growth” (IOWA STATE UNIVERSITY RESEARCH FOUNDATION, INC., priority 2009, dated 2016)", "key": {"[1]": {"system": "HERK1, THE1 and FER", "test": "quantitative RT-PCR of HERK1, THE1 and FER expression after hormone treatment", "format": "in vivo, Arabidopsis thaliana", "from_the_text": "(1A) The expression of HERK1, THE1 and FER is induced by BL treatment in 10-day-old seedlings and 4-week-old adult plants. Triplicate biological samples were used to prepare RNA for quantitative RT PCR. The relative expression levels compared to UBQ5 gene were used to determine the BL-induction levels of each gene. The averages and standard deviations from three biological repeats are shown. […] Ten-day-old seedlings were used to prepare RNA for qRT-PCR as described in (1A). (1C-E) HERK1 cellular localization: A HERK1-GFP (1C) or BES1-D-GFP (1D) construct was introduced into protoplasts or transgenic plants (1E). HERK1 is mostly localized at the plasma membrane (1C and 1E), while BES1-D is primarily in the nucleus (1D). […] Recombinant proteins fused with MBP representing the wild-type HERK1 kinase domain (WT), and a mutant version with disrupted kinase activity (mutant), were used in kinase assay. […] The bars in 1G/1H and 1I represent 2.5 and 10 mm, respectively.\n(8A) Regulation of HERK1, THE1 and FER as well as other CrRLK family members by BL. The data are derived from microarray experiments with light-growing seedlings treated with 10 nM BL for 3 hr, which is published in a public website (http://bbc.botany.utoronto.ca/efp/cgi-bin/efpWeb.cgi). […] The averages and standard deviations for 2 biological replicates are shown. (8C) the herk1 the1 double mutant has a normal GA response in a hypocotyl elongation assay. […]\nFor reverse transcription-polymerase chain reaction (RT-PCR), 2 μg total RNA was reverse-transcribed to cDNA by SuperScript II Reverse Transcriptase (Invitrogen). For real-time quantitative RT-PCR, the primers were designed so that the products are between 200-300 bps. The SYBR Green PCR Master mix (Applied Biosystems) was used and the PCR reactions were run on the Mx4000® multiplex quantitative PCR system (Stratagene). Two or three biological replicates were each analyzed with 2-3 RT-PCR reactions. For semi-quantitative RT-PCR, the same amount of cDNA was used for each PCR reaction. […]"}, "[2]": {"system": "wild-type 24-day-old adult plants", "test": "Affymetrix microarray gene expression, wild-type adult plants with BL", "format": "in vivo, Arabidopsis thaliana", "protocol": "(§1) Microarray experiments were performed with 24-day-old adult plants. The whole plants were sprayed with either water or […] and incubate for 2.5 hours. The plants were pooled into three groups as triplicates (8 plants per group). Total RNA was prepared with RNeasy Plant Mini Kit (QIAGEN) and used to make probes for microarray experiments with Affymetrix Arabidopsis Genomic arrays. The probe labeling, hybridization, and scanning were performed according to manufacture's instructions. Microarray data was normalized by the MAS 5.0 method implemented in the R package affy and the linear model was applied to two sample comparison (samples with and without BL treatment or WT compared to mutant) using the limma package (39, 40). Genes with an adjusted p-value <=0.01 were considered to be differentially expressed. The BR-induced genes, HERK1/THE regulated genes were used for clustering analysis with the GENESPRING program (Silicon Genetics) using Pearson Correlation."}, "[3]": {"system": "herk1 the1 double mutant 24-day-old adult plants", "test": "Affymetrix microarray gene expression, herk1 the1 double mutant adult plants with BL", "format": "in vivo, Arabidopsis thaliana", "protocol": "as §1"}, "[4]": {"system": "CrRLK1L family RLKs", "test": "microarray of CrRLK1L family expression, 2-week-old seedlings with or without BL", "format": "in vivo, Arabidopsis thaliana", "details": "wild-type (En-2), BL 1 uM, 3 hr", "protocol": "(9A) The expression of CrRLK family RLKs by BL in WT and bes1-D mutant. Microarrays were performed with 2-week-old seedlings with or without BL treatment (1 uM, 3 hr). At5g38990 and At5g39000 have the same probe set in Affymetrix ATH1 Genome arrays, so only the former is shown. (9B) BR responses of the indicated mutants at the seedling stage, performed as described. (9C) Plant phenotypes of 24-day-old adult plants. The bar represents 10 mm. (9D) Petiole lengths of the sixth leaf in WT and mutants. Averages and standard deviations from 10 plants are shown. (E) A model for HERK signaling and its crosstalk with BR pathway.\nBRs function to regulate cell elongation and many other processes^10-13. BRs signal through a membrane-localized receptor kinase BRI1 and other signaling components^10, 14-16 to control BES1 and BZR1 family transcription factors, which mediate the expression of many genes for BR responses^17-20. […] To further confirm that these RLK genes are modulated by BRs and/or BES1, we performed a microarray experiment with bes-D mutant^19, a constitutive BR response mutant due to highly accumulated BES1 protein, with En-2 as wild-type control (L.L. & Y.Y. in preparation). The expression of all CrRLK1L members is examined (FIG. 5A)."}, "[5]": {"system": "CrRLK family members", "details": "10 nM BL for 3 hr; cited from earlier work"}, "[6]": {"details": "adult plants, microarray, adjusted p-value <=0.01"}}}
{"smiles": "CC(C)[C@H](C)[C@@H](O)[C@H](O)[C@@H](C)[C@H]1CC[C@H]2[C@@H]3COC(=O)[C@H]4C[C@H](O)[C@H](O)C[C@]4(C)[C@H]3CC[C@]12C", "note": "[BL, brassinolide]", "values": [{"measurement": "up-regulation of HERK1, THE1 and FER expression", "setting": "[1]; seedlings and/or adult plants, relative to UBQ5, p<0.01", "result": "20-80%"}, {"measurement": "gene expression level At3g45960 (EXPL3)", "setting": "[2]; WT + BL, WT-BL 24", "result": 92}, {"measurement": "gene expression level AT1G10550 (XTH33)", "setting": "[2]; WT + BL, WT-BL 47", "result": 223}, {"measurement": "gene expression level At1g65310 (XTH17)", "setting": "[2]; WT + BL, WT-BL 137", "result": 214}, {"measurement": "gene expression level At1g20190 (EXP11)", "setting": "[2]; WT + BL, WT-BL 141", "result": 395}, {"measurement": "gene expression level At4g30290 (XTH19)", "setting": "[2]; WT + BL, WT-BL 153", "result": 297}, {"measurement": "gene expression level At4g38400 (EXPL2)", "setting": "[2]; WT + BL, WT-BL 188", "result": 433}, {"measurement": "gene expression level At2g20750 (EXPB1)", "setting": "[2]; WT + BL, WT-BL 295", "result": 198}, {"measurement": "gene expression level At2g37640 (EXP3)", "setting": "[2]; WT + BL, WT-BL 384", "result": 641}, {"measurement": "gene expression level At3g07010 (PLL20)", "setting": "[2]; WT + BL, WT-BL 427", "result": 939}, {"measurement": "gene expression level AT1G11545 (XTH8)", "setting": "[2]; WT + BL, WT-BL 453", "result": 1178}, {"measurement": "gene expression level At3g23730 (XTH16)", "setting": "[2]; WT + BL, WT-BL 559", "result": 819}, {"measurement": "gene expression level At3g45970 (EXPL1)", "setting": "[2]; WT + BL, WT-BL 581", "result": 1339}, {"measurement": "gene expression level At2g40610 (EXP8)", "setting": "[2]; WT + BL, WT-BL 1006", "result": 2407}, {"measurement": "gene expression level AT5G57560 (XTH22)", "setting": "[2]; WT + BL, WT-BL 2277", "result": 7344}, {"measurement": "gene expression level At3g29030 (EXP5)", "setting": "[2]; WT + BL, WT-BL 2323", "result": 2112}, {"measurement": "gene expression level At1g04680 (PLL26)", "setting": "[2]; WT + BL, WT-BL 2466", "result": 3402}, {"measurement": "gene expression level At4g37800 (XTH7)", "setting": "[2]; WT + BL, WT-BL 2899", "result": 3419}, {"measurement": "gene expression level At2g28950 (EXP6)", "setting": "[2]; WT + BL, WT-BL 3287", "result": 2524}, {"measurement": "gene expression level At1g69530 (EXP1)", "setting": "[2]; WT + BL, WT-BL 6798", "result": 8465}, {"measurement": "gene expression level At2g06850 (XTH4)", "setting": "[2]; WT + BL, WT-BL 7247", "result": 13455}, {"measurement": "number of genes whose expression BL induces", "setting": "[2]; [6]", "result": 650}, {"measurement": "number of genes whose expression BL represses", "setting": "[2]; [6]", "result": 520}, {"measurement": "gene expression level At3g45960 (EXPL3)", "setting": "[3]; herk1 the1-BL 18", "result": 44}, {"measurement": "gene expression level At1g20190 (EXP11)", "setting": "[3]; herk1 the1-BL 35", "result": 225}, {"measurement": "gene expression level AT1G10550 (XTH33)", "setting": "[3]; herk1 the1-BL 48", "result": 191}, {"measurement": "gene expression level At1g65310 (XTH17)", "setting": "[3]; herk1 the1-BL 95", "result": 302}, {"measurement": "gene expression level At4g38400 (EXPL2)", "setting": "[3]; herk1 the1-BL 151", "result": 381}, {"measurement": "gene expression level At2g20750 (EXPB1)", "setting": "[3]; herk1 the1-BL 161", "result": 157}, {"measurement": "gene expression level At4g30290 (XTH19)", "setting": "[3]; herk1 the1-BL 162", "result": 259}, {"measurement": "gene expression level At3g07010 (PLL20)", "setting": "[3]; herk1 the1-BL 325", "result": 829}, {"measurement": "gene expression level At2g37640 (EXP3)", "setting": "[3]; herk1 the1-BL 340", "result": 594}, {"measurement": "gene expression level AT1G11545 (XTH8)", "setting": "[3]; herk1 the1-BL 357", "result": 1249}, {"measurement": "gene expression level At2g40610 (EXP8)", "setting": "[3]; herk1 the1-BL 437", "result": 1586}, {"measurement": "gene expression level At3g45970 (EXPL1)", "setting": "[3]; herk1 the1-BL 529", "result": 970}, {"measurement": "gene expression level At3g23730 (XTH16)", "setting": "[3]; herk1 the1-BL 636", "result": 1069}, {"measurement": "gene expression level At3g29030 (EXP5)", "setting": "[3]; herk1 the1-BL 1523", "result": 1848}, {"measurement": "gene expression level At4g37800 (XTH7)", "setting": "[3]; herk1 the1-BL 1831", "result": 2864}, {"measurement": "gene expression level At1g04680 (PLL26)", "setting": "[3]; herk1 the1-BL 1982", "result": 2932}, {"measurement": "gene expression level At2g28950 (EXP6)", "setting": "[3]; herk1 the1-BL 2074", "result": 1919}, {"measurement": "gene expression level AT5G57560 (XTH22)", "setting": "[3]; herk1 the1-BL 2728", "result": 7941}, {"measurement": "gene expression level At1g69530 (EXP1)", "setting": "[3]; herk1 the1-BL 3595", "result": 6462}, {"measurement": "gene expression level At2g06850 (XTH4)", "setting": "[3]; herk1 the1-BL 5096", "result": 11194}, {"measurement": "regulation of FER, THE1, HERK1, At1g30570 (HERK2), At2g39360 and At5g24010", "setting": "[4]", "result": "slightly upregulated"}, {"measurement": "induction of HERK1, THE1 and FER among CrRLK family members", "setting": "[5]", "result": "most highly induced"}, {"measurement": "regulation of At2g39360, At5g24010, At1g30570, At5g38990/At5g39000 and At5g39020", "setting": "[5]", "result": "slightly induced"}]}
{"smiles": "C=C1C[C@]23C[C@@]1(O)CC[C@H]2[C@@]12C=C[C@H](O)[C@@](C)(C(=O)O1)[C@H]2[C@@H]3C(=O)O", "note": "[GA3]", "values": [{"measurement": "regulation of expression of HERK1, THE1, and FER", "setting": "[1]; 10-day-old seedlings, qRT-PCR", "result": "up-regulates"}]}
{"smiles": "O=C(O)Cc1c[nH]c2ccccc12", "note": "[IAA]", "values": [{"measurement": "regulation of expression of HERK1", "setting": "[1]; 10-day-old seedlings, qRT-PCR", "result": "appears to induce"}]}
